Results on 91 molecules are retold here after PubChem BioAssay AID743417 (Broad Institute, 2014).

Usually AC50 stands for the concentration giving half of the maximal activity seen.

Inconclusive results are not listed. The source made the active and inactive calls.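 How the source made its calls: active means compounds lowering the luciferase signal with a fitted half-maximal dose at most twice their top valid dose (cut at about 30 µM in these data); inconclusive means flat fits with moderate signal loss, or poor fits; inactive means the rest.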

The experiment relates to Clone20 osteoblast Shn3 3'UTR firefly luciferase, 24 h. Description: Shn3 3'UTR reporter inhibitors, dose response, cell-based, Clone20 osteoblasts, luminescence, dry powder, set 2 (AID 743417).

For the molecule `COc1ccc(-c2cc(C(F)(F)F)nc(S(=O)(=O)CCCC(=O)Nc3cccnc3Cl)n2)cc1OC`, the AC50 is 3.17 µM.
The same measure for `CNS(=O)(=O)c1cccc(C(=O)OCc2cc(C(C)=O)ccc2OC)c1`: 11.2 µM.
The same measure for `COC(=O)C[C@]1(C(=O)OC)CN(C#N)N(c2ccc(Cl)cc2)C12c1ccccc1-c1ccccc12`: 1.88 µM; for `CN(CC(=O)Nc1ccccc1Cl)C(=O)c1cccc(S(=O)(=O)N2CCN(Cc3ccccc3)CC2)c1`: 3.47 µM; for `CCOC(=O)c1c(CSCc2ccccc2)oc2ccc(O)c(CN(C)C)c12`: 9.79 µM.
The same measure for `C=C1CC(Cn2cc(Br)c(=O)[nH]c2=O)(c2ccc(-c3ccccc3)cc2)OC1=O` (stereo unspecified): 2.67 µM; for `Cc1ccc(NS(=O)(=O)c2ccc(C(=O)NC3CCN(Cc4ccccc4)CC3)cc2)cc1`: 4.69 µM; for `O=C1C=C(c2ccnc3cc(Cl)ccc23)C[C@@H](c2ccc3c(c2)OCO3)C1`: 1.36 µM.
`CCN(CC)S(=O)(=O)c1cc(NC(=O)CNc2cccc(S(=O)(=O)N3CCOCC3)c2)ccc1C`: the AC50 is 2.97 µM.
Take `CC(C)c1ccc(NC(=O)Nc2nc(C(N)CCc3ccccc3)cs2)cc1` (stereo unspecified): the AC50 was 5.36 µM.
Consider `CCc1ccc(-n2c(O)c(C=NCCN(CC)CC)c(=O)[nH]c2=O)cc1`, for which the AC50 was > 70 µM (inactive).
As for `Cn1nnnc1Sc1ncnc2scc(-c3ccc(Br)cc3)c12`, the AC50 is 0.334 µM.
For `COc1ccc(OC)c(NC(=O)c2cc(-c3cc(F)ccc3OCC3CCCO3)n[nH]2)c1` (stereo unspecified) the value was 10.5 µM; for `Cc1nc(NC(C)c2ccccc2)c2oc3ccccc3c2n1` (stereo unspecified), 3.06 µM.
For `Oc1c(CN2CCCCC2)ccc2cccnc12`, the AC50 was 2.11 µM.
The same measure for `C=CCOc1nc2c(c(=O)n(C)c(=O)n2C)n1Cc1ccc(Cl)cc1Cl`: 2.15 µM; for `CC(O)(c1ccncc1)c1nc(-c2cccc(C(F)(F)F)c2)cs1` (stereo unspecified): 5.34 µM.
The same measure for `COC(=O)C1=C(C(=O)OC)[C@@H]2N(Cc3ccccc3)c3ccccc3[C@@]23C[C@@H](C(=O)OC)N(C(=O)c2ccc(Br)cc2)C3=N1`: 8.52 µM; for `CCC(=O)NC(c1ccc(OC)c(OC)c1)c1cc(Cl)c2cccnc2c1O` (stereo unspecified): < 0.26 µM.
Turning to `CCCC(=O)NC(=S)Nc1ccc(N2CCN(C(=O)c3cccs3)CC2)cc1`, the AC50 was 10.1 µM.
Take `CCCCC(=O)NC(c1ccc(Cl)cc1Cl)c1ccc2cccnc2c1O` (stereo unspecified): the AC50 was 0.67 µM.
Take `CCOc1ccc(CN(C)c2ccc(S(=O)(=O)N3CCN(C)CC3)cc2[N+](=O)[O-])cc1OC`: the AC50 is 3.38 µM.
The same measure for `CCOC(=O)c1cn(CC(=O)Nc2cccc(Cl)c2C)nn1`: 4.65 µM; for `CC(=O)N1CCOc2cc(S(=O)(=O)NCc3ccc(F)cc3)c(C)cc21`: > 70 µM (inactive); for `Cc1nn(Cc2noc(C(=O)NC3CCC(C)CC3)n2)c(C)c1Br` (stereo unspecified): 3.28 µM.
For the molecule `Cc1cc(C(=O)COc2cccnc2[N+](=O)[O-])c(C)n1-c1ccccc1`, the AC50 is 34.8 µM.
In the case of `CC(=O)N1c2ccc(S(=O)(=O)N3CCC(C(=O)N4CCN(c5ccccc5F)CC4)CC3)cc2CC1C` (stereo unspecified), the AC50 was 5.41 µM.
For `COCCC1CCCCN1C(=O)c1cc(COc2ccc(-n3cncn3)cc2)on1` (stereo unspecified) the value was 0.57 µM.
For `Fc1ccc(NC(=S)N2CCCN(c3ccc(C(F)(F)F)cn3)CC2)c(F)c1` the value was 3.71 µM; for `Cc1ccc(C)c(N2CCN(C(=O)CCCCCn3c(=S)[nH]c4ccc(N5CCOCC5)cc4c3=O)CC2)c1`, 1.99 µM; for `Nc1nc(Cl)cc(N2CCC(c3cc(-c4ccc(Cl)cc4)n[nH]3)CC2)n1`, 2.43 µM.
The same measure for `C/C1=C\[C@@H](C)C/C=C/[C@H]2[C@@H]3O[C@]3(C)[C@@H](C)[C@H]3[C@H](Cc4c[nH]c5ccccc45)NC(=O)[C@]32C(=O)/C=C/C(=O)[C@@H]1O`: 6.44 µM; for `CCc1c(C)nc2ncnn2c1NCCc1ccc(Cl)cc1`: 2.17 µM; for `Cc1ccc(-c2nnc(N3CCC(C)CC3)c3ccccc23)cc1C`: 6.41 µM.
`O=C(c1cc2sccc2n1Cc1ccccc1)N1CCN(c2nc3ccccc3s2)CC1`: the AC50 was 1.09 µM.
The same measure for `COc1ccc(C(=O)C(CN2CCOCC2)c2ccccc2)cc1` (stereo unspecified): 5.59 µM; for `Cc1nc2scc(C)n2c(=O)c1S(=O)(=O)Nc1ccc(N2CCOCC2)c(Cl)c1`: 1.67 µM; for `CCS(=O)(=O)c1ccc2oc(SCC(=O)N3CCCCC3)nc2c1`: > 70 µM (inactive).
The same measure for `CCCCN1CC(COCc2ccccc2)Oc2cccc(Oc3ccc(C)cc3)c2S1(=O)=O` (stereo unspecified): 10.7 µM.
The same measure for `Cc1cc(Nc2ccccc2)nc(NCc2ccccc2)n1`: 1.04 µM; for `Cc1cc(/C=C2/SC(=S)N(c3cccc(Cl)c3)C2=O)c(C)n1-c1cccnc1`: 0.979 µM; for `COc1ccc(C)cc1NS(=O)(=O)c1ccc(-c2cnc(C3CC3)o2)cc1`: 3.76 µM.
As for `CCCOc1ccccc1N/C(=N/c1nc(C)cc(C)n1)NC(=O)COc1ccc(OC)cc1`, the AC50 is 3.24 µM.
The same measure for `COc1cc(NC(=O)COc2cccc3c2OC(C)(C)C3)cc(OC)c1OC`: 4.38 µM; for `c1ccc(-c2noc(-c3ccc4ccccc4c3)n2)nc1`: 1.98 µM.
The same measure for `CCC(C)[C@H]1CNC(=S)N1CCc1cc(C(F)(F)F)cc(C(F)(F)F)c1` (stereo partly specified): 21.6 µM; for `O=C(/C=C/Nc1ccccc1Br)c1ccccn1`: 1.8 µM.
For `COc1ccc([C@H]2CC(=O)C=C(c3ccc(F)cc3OCc3ccccc3)C2)cc1OC` the value was 7.36 µM; for `O=[N+]([O-])c1c(Nc2cccc(O)c2)cc(Cl)c2nonc12`, 0.683 µM.
Consider `Cc1ccc2[nH]c3c(N4CCN(Cc5ccccc5)CC4)ncnc3c2c1`, for which the AC50 is 4.18 µM.
On to `CCn1c(C)nc2cc(-c3nnc(-c4c(-c5ccccc5)noc4C)o3)ccc21`, for which the AC50 was 5.82 µM.
As to `O=C1NC2C(=CC(O)C(O)C2O)c2cc3c(c(O)c21)OCO3` (stereo unspecified), the AC50 was < 0.26 µM.
For `FC(F)(F)c1nnc(-c2ccccc2)nc1Sc1ccc(Cl)cc1` the value was 14.7 µM.
With `COc1ccc(CNc2ncnc3sccc23)cc1OC`, the AC50 was 2.34 µM.
In the case of `Cc1nc2ccc(NS(=O)(=O)c3ccc4c(c3)OCCO4)cc2s1`, the AC50 is 0.635 µM.
On to `C#CCN(C[C@@H]1[C@@H](OC(=O)NC2CCCC2)[C@@H](OC(=O)NC2CCCC2)Cn2c(=O)ccc(=O)n21)S(=O)(=O)c1ccc(C)cc1`, for which the AC50 was 12.9 µM.
Turning to `CN(CCOc1ccc(Cl)cc1)C(=O)c1cccc(S(=O)(=O)N2CCN(Cc3ccccc3)CC2)c1`, the AC50 was 2.29 µM.
The same measure for `COc1ccc(CNc2ncnc3ccccc23)cc1`: 0.674 µM; for `CCCC(=O)NC(c1ccc(N(C)C)cc1)c1ccc2cccnc2c1O` (stereo unspecified): 0.916 µM; for `COc1cccc(-c2nc(NC3CCCC3)c3ccccc3n2)c1O`: 25 µM.
For `CCN(CC)Cc1c(O)ccc2c1O/C(=C\C=C\c1ccccc1)C2=O`, the AC50 was 1.96 µM.
For `COc1ccc(-c2nc(CN3CCN(c4ncnc5ccccc45)CC3)c(C)o2)c(OC)c1` the value was 6.38 µM.
For `CC1C(OC(=O)CCC(=O)NC(C)(C)CO)O[C@H]2OC3(C)CC[C@H]4[C@H](C)CCC1C24OO3` (stereo partly specified) the value was 0.495 µM; for `CCOC(=O)C1CCCN(S(=O)(=O)c2ccc(S(=O)(=O)N(CC)CC)cc2)C1` (stereo unspecified), 0.512 µM; for `COCCN1Cc2cccc(C(=O)Nc3ccc4c(c3)OCCO4)c2C1=O`, 27.1 µM.
As to `CC1CCN(c2ccc(-c3cccc(NC(=O)C(F)(F)F)c3)nn2)CC1`, the half-maximal activity concentration (AC50) is 2.74 µM.
For `O=C(CN1C(=O)c2ccccc2S1(=O)=O)c1ccc2c(c1)OCCCO2` the value was 0.262 µM; for `C=CC[C@H](CC(=O)N(CCO)Cc1ccccc1)C(=O)NC[C@H](OC(=O)[C@@H](CC=C)Cc1ccc(F)cc1)c1ccccc1`, 10.7 µM; for `CCc1nnc(NC(=O)c2nc(S(=O)(=O)Cc3ccc(C)cc3)ncc2Cl)s1`, 3.01 µM.
As to `CCCCNc1cc(C)nc(NCc2ccccc2)n1`, the AC50 is 0.719 µM.
For `CC(CNC(=O)c1cc(COc2ccc3ncccc3c2)on1)c1ccccc1` (stereo unspecified) the value was 3.73 µM; for `CCC(=O)c1cn(CC(=O)Nc2cccc(C)c2C)c2ccccc12`, 1.52 µM; for `CCn1c(=NC(=O)CCS(=O)(=O)c2ccccc2)sc2cccc(OC)c21`, 1.28 µM.
The same measure for `Cc1ccc(-n2c(Cl)c(Cl)nc(Cl)c2=O)cc1`: 1.77 µM.
For `COCCN(CC(=O)NC1CCCCC1)C(=O)/C=C/C(=O)c1ccc(OC)cc1O`, the AC50 is 2.58 µM.
The same measure for `CCN(C(=O)C1CCN(c2nc(-c3ccc(OC)cc3)no2)CC1)c1ccc(OC)cc1`: 3.17 µM; for `O=C(/C=C/c1ccc(OCc2ccccc2)c(OCc2ccccc2)c1)c1cccnc1`: 5.19 µM.
For `CCCC(=O)NC(c1ccc(Cl)cc1Cl)c1ccc2cccnc2c1O` (stereo unspecified), the AC50 is 0.638 µM.
As for `Cc1ccc(C(=O)/C=C/c2ccc(-c3ccc(C)cc3)o2)cc1`, the AC50 was 2.79 µM.
The same measure for `CCCSc1nnc(CSc2nc3ccccc3s2)n1-c1ccccc1`: 7.05 µM; for `CC(=O)OCCCNc1cc(Sc2nc3ccccc3s2)c2nonc2c1[N+](=O)[O-]`: 4.7 µM.
For `COc1cc(OC)c(OC)cc1CNC(=O)c1cccc(S(=O)(=O)N2CCc3ccccc3C2)c1`, the AC50 is 2.39 µM.
For `Cc1cc(C)n2nc(SCc3cccc(S(=O)(=O)N(C)C)c3)nc2n1` the value was 14 µM; for `O=C(Nc1ccc(F)c(F)c1)c1ccc(F)c(S(=O)(=O)N2CCC3(CC2)OCCO3)c1`, 12.2 µM.
The same measure for `C=C1C(=O)OC2CC3(C)OC3C3OC3C3=CC(OC3=O)C12` (stereo unspecified): 1.45 µM.
For `COc1ccc(C(=O)/C=C/C(=O)N(CC(=O)NCCC(C)C)Cc2cccs2)c(O)c1` the value was 3.49 µM; for `O=C(N[C@@H]1C/C=C\C[C@@H](CC(=O)N(CCO)Cc2ccccc2)C(=O)NC[C@H](c2ccccc2)OC1=O)OCC1c2ccccc2-c2ccccc21`, 7.04 µM; for `Cc1cccc(CS(=O)(=O)c2ncc(Cl)c(C(=O)NCc3ccccc3)n2)c1`, 2.94 µM.
In the case of `COc1cc2cc(C(=O)N3CC(COS(C)(=O)=O)c4ccc(O)cc43)[nH]c2c(OC)c1OC` (stereo unspecified), the AC50 was < 0.26 µM.
For `Cc1ccc(S(=O)(=O)c2ccc([N+](=O)[O-])cn2)cc1`, the half-maximal activity concentration (AC50) was 3.85 µM.
The same measure for `O=C(NCc1ccccc1)c1nc(S(=O)(=O)Cc2ccccc2)ncc1Cl`: 1.19 µM.
